Data as given in patent publication US10172868B2, “Substituted quinazolines for inhibiting kinase activity” (NeuPharma, Inc., priority 2013, dated 2019).

Columns and labels:
[1] = system: H1975 cells; experiment: Inhibition of cancer cell growth, MTT assay, H1975; details: Homo sapiens, NCI-H1975, 72 h, read-out: IC50 in H1975 cells
Protocol: (§1) Inhibition of cell growth by compounds was measured using MTT assay (Mosmann, T., Journal of Immunological Methods, 1983, 65, 55-63). Tumor cell lines were purchased from ATCC (American Type Culture Collection, Manassas, Va.). All cell lines were maintained in RPMI 1640 (Hyclone) supplemented with 10% fetal bovine serum (FBS, Hyclone), glutamine (2 mM, Hyclone), and antibiotics (penicillin 100 U/mL and streptomycin 50 μg/mL) at 37° C. in a humidified atmosphere of 5% CO2 in air. Taxol (as a positive control. Sigma) and compounds were dissolved in DMSO (Sigma), and the final concentration of DMSO in the medium was 1%. Tumor cells were plated in 96-well plates at densities of about 4000 cells/well of a 96-well plate and allowed to adhere/grow for 24 h. They were then treated with various concentrations of drug for 72 h, 3-(4,5-Dimethylthiazol-2-yl)-2,5-diphenyltetrazolium bromide (MTT, Sigma) was used to determine the number of viable cells at the time of compound addition and the number of cells remaining after 72 h compound exposure. The number of cells remaining after 72 h was compared to the number of viable cells at the time of compound addition by measuring the absorbance at 570 nm, allowing for the calculation of growth inhibition.
(§2) All concentrations of compounds were tested in triplicate and controls were averaged over 4 wells. IC50 was calculated by plotting the concentration of compound vs the percentage of inhibition in treated wells using GraphPad Prism 5.

[2] = system: HCC827 cells; experiment: cells; details: Homo sapiens, HCC827, 72 h, read-out: IC50 in HCC827 cells
[3] = molecular target: EGFR (ErbB1) T790M L858R (Homo sapiens (Human), UniProt P00533, L858R/T790M); experiment: Z'-LYTE kinase inhibition assay, EGFR L858R/T790M; assay type: biochemical; details: for inhibition at 1 µM: read-out: % inhibition against EGFR L858R/T790M (Compound at 1 μM); for IC50: read-out: IC50 against EGFR L858R/T790M; for inhibition at 0.0137 µM: read-out: % inhibition against EGFR L858R/T790M (Compound at 0.0137 μM)
In short: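 Z'-LYTE FRET peptide assay at 1% DMSO, 10-point 3-fold titrations; kinase/peptide mix in 50 mM HEPES pH 6.5, 0.01% BRIJ-35, 10 mM MgCl2, 1 mM EGTA, 0.02% NaN3. Kinase reaction ran 60 min at room temperature, followed by 60 min development and a fluorescence read. IC50 derived from the concentration series.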

[4] = molecular target: FGFR1 (Homo sapiens (Human), UniProt P11362); experiment: Z'-LYTE kinase inhibition assay, FGFR1; assay type: biochemical; details: compound at 0.041 μM; read-out: % inhibition against FGFR1
Protocol: Inhibitory activities of compounds against BTK, EGFR and EGFR mutants (EGFR L858R, EGFR T790M, EGFR L858R/T790M), FGFR1, FGFR2, JAK2, JAK3 and KDR were measured by Invitrogen using Z'-LYTE® Method as briefly described in the following.
Test Compounds are screened in 1% DMSO (final) in the well. For 10 point titrations, 3-fold serial dilutions are conducted from the starting concentration. All ATP Solutions are diluted to a 4× working concentration in Kinase Buffer (50 mM HEPES pH 7.5, 0.01% BRIJ-35, 10 mM MgCl2, 1 mM EGTA). Peptide/Kinase Mixtures are diluted to a 2× working concentration in the appropriate Kinase Buffers as described below.
(v) Peptide/Kinase Mixtures for Measurement of FGFR1:
The 2×FGFR1/Tyr 04 mixture is prepared in 50 mM HEPES pH 7.5, 0.01% BRIJ-35, 10 mM MgCl2, 4 mM MnCl2, 1 mM EGTA, 2 mM DTT. The final 10 μL Kinase Reaction consists of 0.41-3.5 ng FGFR1 and 2 μM Tyr 04 in 50 mM HEPES pH 7.5, 0.01% BRIJ-35, 10 mM MgCl2, 2 mM MnCl2, 1 mM EGTA, 1 mM DTT. After the 1 hour Kinase Reaction incubation, 5 μL of a 1:64 dilution of Development Reagent B is added.
Reaction starts by 30-second shaking of mixture consisting of 2.5 μL 4× test compound, […] 2× kinase reaction mixture and 2.5 μL 4×ATP Solution on Bar-coded Corning, low volume NBS, black 384-well plate (Corning Cat. #3676). Then the mixture is incubated for 60-minute at room temperature for the kinase reaction, followed by addition of 5 μL of a 1:1024 dilution of development reagent A and 30-second plate shake. The mixture is then incubated for another 60-minute at room temperature for development reaction. Finally fluorescence is read by plate reader.
To determine IC50 of a compound against EGFR, EGFR mutant and other kinases, a series of concentrations of the compound were tested for the inhibition. […] The scale utilized in Table 4 is as follows: +++ less than 100 nM, ++ 100-500 nM and + greater than 500 nM.

[5] = molecular target: EGFR (ErbB1) (Homo sapiens (Human), UniProt P00533); experiment: Z'-LYTE kinase inhibition assay, EGFR; assay type: biochemical; details: for inhibition at 1 µM: read-out: % inhibition against EGFR (Compound at 1 μM); for inhibition at 0.041 µM: read-out: % inhibition against EGFR (Compound at 0.041 μM)
In short: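 Z'-LYTE FRET assay run with 1.1-5.25 ng EGFR and 2 μM peptide substrate in 50 mM HEPES pH 7.5, 10 mM MgCl2, 2 mM MnCl2, 1 mM EGTA, 1 mM DTT, 0.01% BRIJ-35, 1% DMSO. Kinase reaction 60 min at room temperature, then 60 min development; IC50 from 10-point 3-fold titrations.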

[6] = system: H1299 cells; experiment: Inhibition of cancer cell growth, MTT assay, H1299; details: Homo sapiens, NCI-H1299, 72 h, read-out: IC50 in H1299 cells
Protocol: as §1, §2

[7] = system: A431 cells; experiment: cells; details: Homo sapiens, A-431, 72 h, read-out: IC50 in A431 cells

EGFR (ErbB1) T790M L858R, sequence (P00533 25-1210 T790M/L858R): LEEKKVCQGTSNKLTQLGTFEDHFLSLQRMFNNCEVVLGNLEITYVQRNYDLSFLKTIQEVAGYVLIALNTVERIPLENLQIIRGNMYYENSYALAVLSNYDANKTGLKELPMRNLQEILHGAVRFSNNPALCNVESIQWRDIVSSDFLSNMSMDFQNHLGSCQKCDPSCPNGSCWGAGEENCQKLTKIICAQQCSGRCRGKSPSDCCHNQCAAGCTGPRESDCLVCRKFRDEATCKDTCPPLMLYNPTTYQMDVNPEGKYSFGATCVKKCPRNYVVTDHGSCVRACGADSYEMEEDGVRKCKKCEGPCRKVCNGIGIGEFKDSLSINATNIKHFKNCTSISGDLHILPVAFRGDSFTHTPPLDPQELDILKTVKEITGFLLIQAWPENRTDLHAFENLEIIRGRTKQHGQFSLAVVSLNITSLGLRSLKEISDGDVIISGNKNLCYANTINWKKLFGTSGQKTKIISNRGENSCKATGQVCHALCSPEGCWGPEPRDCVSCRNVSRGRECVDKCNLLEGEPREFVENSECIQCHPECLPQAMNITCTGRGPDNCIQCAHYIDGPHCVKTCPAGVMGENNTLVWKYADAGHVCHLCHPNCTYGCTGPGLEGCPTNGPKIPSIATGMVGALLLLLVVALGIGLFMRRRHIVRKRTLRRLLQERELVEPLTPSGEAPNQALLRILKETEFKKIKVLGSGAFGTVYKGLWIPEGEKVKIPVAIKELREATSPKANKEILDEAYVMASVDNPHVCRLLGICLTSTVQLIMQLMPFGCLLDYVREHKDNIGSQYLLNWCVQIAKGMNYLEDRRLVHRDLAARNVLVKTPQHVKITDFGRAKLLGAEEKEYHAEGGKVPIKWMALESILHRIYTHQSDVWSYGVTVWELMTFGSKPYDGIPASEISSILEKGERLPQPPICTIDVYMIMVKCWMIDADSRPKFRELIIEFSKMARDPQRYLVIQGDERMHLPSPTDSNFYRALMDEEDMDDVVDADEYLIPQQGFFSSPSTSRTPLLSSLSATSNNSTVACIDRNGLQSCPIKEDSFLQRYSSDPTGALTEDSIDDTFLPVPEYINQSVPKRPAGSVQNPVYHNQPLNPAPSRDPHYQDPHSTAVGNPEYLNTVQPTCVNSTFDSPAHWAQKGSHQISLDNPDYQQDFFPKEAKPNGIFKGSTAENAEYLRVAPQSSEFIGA
FGFR1, sequence (P11362 22-822): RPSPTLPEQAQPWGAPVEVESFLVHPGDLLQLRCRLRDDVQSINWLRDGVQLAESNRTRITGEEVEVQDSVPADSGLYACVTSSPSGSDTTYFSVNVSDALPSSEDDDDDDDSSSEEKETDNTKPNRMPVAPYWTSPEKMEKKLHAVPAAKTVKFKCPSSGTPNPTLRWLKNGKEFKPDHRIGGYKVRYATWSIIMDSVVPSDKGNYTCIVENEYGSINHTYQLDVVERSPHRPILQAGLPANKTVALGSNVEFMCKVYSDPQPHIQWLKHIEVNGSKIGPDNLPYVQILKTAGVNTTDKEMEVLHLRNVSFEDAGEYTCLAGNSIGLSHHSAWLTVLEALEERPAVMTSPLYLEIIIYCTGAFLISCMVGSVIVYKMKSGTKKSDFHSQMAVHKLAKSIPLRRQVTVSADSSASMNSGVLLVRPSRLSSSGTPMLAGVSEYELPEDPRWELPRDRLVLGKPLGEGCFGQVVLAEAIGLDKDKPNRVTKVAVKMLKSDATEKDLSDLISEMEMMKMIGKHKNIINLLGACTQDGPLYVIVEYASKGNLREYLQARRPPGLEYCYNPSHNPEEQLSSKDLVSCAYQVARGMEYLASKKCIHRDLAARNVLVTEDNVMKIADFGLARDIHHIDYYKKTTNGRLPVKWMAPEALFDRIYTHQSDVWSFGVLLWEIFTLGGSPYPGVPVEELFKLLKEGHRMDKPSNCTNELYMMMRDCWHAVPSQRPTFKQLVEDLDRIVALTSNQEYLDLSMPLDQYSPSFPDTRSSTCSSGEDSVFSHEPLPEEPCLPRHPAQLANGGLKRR
EGFR (ErbB1), sequence (P00533 25-1210): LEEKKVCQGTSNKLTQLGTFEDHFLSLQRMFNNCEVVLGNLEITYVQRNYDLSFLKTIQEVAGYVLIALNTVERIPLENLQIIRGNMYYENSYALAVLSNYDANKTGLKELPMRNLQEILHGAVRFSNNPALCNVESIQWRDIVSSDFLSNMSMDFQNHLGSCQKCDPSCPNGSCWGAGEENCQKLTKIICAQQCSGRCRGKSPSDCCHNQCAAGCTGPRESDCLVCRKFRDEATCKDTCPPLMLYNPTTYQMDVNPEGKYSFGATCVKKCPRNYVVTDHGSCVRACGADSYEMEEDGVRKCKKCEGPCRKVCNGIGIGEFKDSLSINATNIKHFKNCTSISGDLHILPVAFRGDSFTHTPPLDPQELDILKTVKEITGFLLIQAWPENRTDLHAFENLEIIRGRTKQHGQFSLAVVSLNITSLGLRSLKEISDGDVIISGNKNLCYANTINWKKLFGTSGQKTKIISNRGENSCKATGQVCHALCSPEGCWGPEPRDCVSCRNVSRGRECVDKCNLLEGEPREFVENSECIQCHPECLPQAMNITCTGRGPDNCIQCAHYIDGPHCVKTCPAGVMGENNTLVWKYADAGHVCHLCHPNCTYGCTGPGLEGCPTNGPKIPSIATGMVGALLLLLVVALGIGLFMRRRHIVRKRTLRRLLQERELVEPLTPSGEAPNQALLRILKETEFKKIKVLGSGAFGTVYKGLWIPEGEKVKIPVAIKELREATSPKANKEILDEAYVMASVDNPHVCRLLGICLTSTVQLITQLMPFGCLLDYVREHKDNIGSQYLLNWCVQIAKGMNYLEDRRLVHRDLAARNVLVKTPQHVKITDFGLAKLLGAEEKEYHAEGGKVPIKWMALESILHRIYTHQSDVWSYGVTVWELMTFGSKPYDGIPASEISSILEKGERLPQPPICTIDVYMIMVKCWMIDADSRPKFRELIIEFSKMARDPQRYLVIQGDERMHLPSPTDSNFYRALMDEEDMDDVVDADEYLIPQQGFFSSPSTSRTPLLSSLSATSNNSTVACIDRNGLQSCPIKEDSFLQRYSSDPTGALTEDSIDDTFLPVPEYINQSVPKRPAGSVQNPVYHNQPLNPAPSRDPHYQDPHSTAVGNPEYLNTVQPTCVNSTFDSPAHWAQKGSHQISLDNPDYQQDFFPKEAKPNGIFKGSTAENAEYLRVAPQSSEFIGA

CCC(=O)Nc1cccc(-c2cccc3cnc(Nc4ccc(N5CCN(C)CC5)cc4)nc23)c1 [Example C020, N-(3-(2-((4-(4-methylpiperazin-1-yl)phenyl)amino)quinazolin-8-yl)phenyl)propionamide]
IC50 [1]: > 0.5 µM
IC50 [2]: > 0.5 µM
inhibition at 1 µM [3]: > 50%
inhibition at 0.041 µM [4]: > 50%

Clc1cccc(-c2cccc3cnc(Nc4ccc(N5CCNCC5)cc4)nc23)c1 [Example C025, 8-(3-chlorophenyl)-N-(4-(piperazin-1-yl)phenyl)quinazolin-2-amine]
IC50 [1]: > 0.5 µM
IC50 [2]: > 0.5 µM
inhibition at 1 µM [3]: > 50%
inhibition at 0.041 µM [4]: > 50%

Fc1cccc(-c2cccc3cnc(Nc4ccc(N5CCNCC5)cc4)nc23)c1 [Example C027, 8-(3-fluorophenyl)-N-(4-(piperazin-1-yl)phenyl)quinazolin-2-amine]
IC50 [1]: > 0.5 µM
IC50 [2]: 0.1 to 0.5 µM
inhibition at 1 µM [3]: > 50%
inhibition at 0.041 µM [4]: > 50%

Fc1ccccc1-c1cccc2cnc(Nc3ccc(N4CCNCC4)cc3)nc12 [Example C031, 8-(2-fluorophenyl)-N-(4-(piperazin-1-yl)phenyl)quinazolin-2-amine]
IC50 [1]: > 0.5 µM
inhibition at 1 µM [5]: > 50%
IC50 [2]: > 0.5 µM
inhibition at 1 µM [3]: > 50%
inhibition at 0.041 µM [4]: > 50%

C=CC(=O)Nc1cccc(-c2c(C)ccc3cnc(Nc4ccc(N5CCN(C)CC5)cc4)nc23)c1 [Example C034, N-(3-(7-methyl-2-((4-(4-methylpiperazin-1-yl)phenyl)amino)quinazolin-8-yl)phenyl)acrylamide]
IC50 [1]: < 0.1 µM
inhibition at 0.041 µM [5]: > 50%
inhibition at 1 µM [5]: > 50%
IC50 ([5]; read-out: IC50 against EGFR): < 0.1 µM
IC50 [6]: > 0.5 µM
IC50 [2]: < 0.1 µM
IC50 [3]: < 0.1 µM
IC50 [7]: > 0.5 µM

C=CC(=O)Nc1cccc(-c2c(C)ccc3cnc(Nc4ccc(N5CCN(C(C)=O)CC5)cc4)nc23)c1 [Example C035, N-(3-(2-((4-(4-acetylpiperazin-1-yl)phenyl)amino)-7-methylquinazolin-8-yl)phenyl)acrylamide]
IC50 [1]: < 0.1 µM
IC50 [6]: > 0.5 µM
IC50 [2]: < 0.1 µM
IC50 [7]: > 0.5 µM

C=CC(=O)Nc1cncc(-c2cccc3cnc(Nc4ccc(N5CCN(C(C)=O)CC5)cc4)nc23)c1 [Example C039, N-(5-(2-((4-(4-acetylpiperazin-1-yl)phenyl)amino)quinazolin-8-yl)pyridin-3-yl)acrylamide]
IC50 [1]: 0.1 to 0.5 µM
IC50 [6]: > 0.5 µM
IC50 [2]: < 0.1 µM

C=CC(=O)Nc1cccc(-c2cccc3cnc(Nc4cnc(N5CCN(C)CC5)nc4)nc23)c1 [Example C046, N-(3-(2-((2-(4-methylpiperazin-1-yl)pyrimidin-5-yl)amino)quinazolin-8-yl)phenyl)acrylamide]
IC50 [1]: < 0.1 µM
inhibition at 0.041 µM [5]: > 50%
IC50 [6]: > 0.5 µM
inhibition at 0.0137 µM [3]: > 50%
IC50 [7]: > 0.5 µM

C=CC(=O)Nc1cccc(-c2cccc3cnc(Nc4ccc(N5CCN(C(C)=O)CC5)cc4)nc23)c1Cl [Example C051, N-(3-(2-((4-(4-acetylpiperazin-1-yl)phenyl)amino)quinazolin-8-yl)-2-chlorophenyl)acrylamide]
IC50 [1]: 0.1 to 0.5 µM
inhibition at 0.041 µM [5]: < 50%
inhibition at 0.0137 µM [3]: > 50%
IC50 [7]: > 0.5 µM
inhibition at 0.041 µM [4]: < 50%

C=CC(=O)Nc1cccc(-c2cccc3cnc(Nc4ccc(N5CCN(C)CC5)c(OC)c4)nc23)c1 [Example C075, N-(3-(2-((3-methoxy-4-(4-methylpiperazin-1-yl)phenyl)amino)quinazolin-8-yl)phenyl)acrylamide]
IC50 [1]: < 0.1 µM
inhibition at 0.041 µM [5]: > 50%
inhibition at 0.0137 µM [3]: > 50%
IC50 [3]: < 0.1 µM
IC50 [7]: 0.1 to 0.5 µM
inhibition at 0.041 µM [4]: > 50%
